Measured values: US20130089512A1, “HETEROARYL IMIDAZOLONE DERIVATIVES AS JAK INHIBITORS” (priority 2010, published 2013)

How the values were obtained:
[1] = target: human JAK3 (aa 795-1124) (Homo sapiens, UniProt P52333); assay: In vitro JAK kinase assay (TR-FRET), JAK3
Procedure: (§1) The enzymatic activity was assayed using as substrate a biotinylated peptide, poly (GT)-Biotin (CisBio). […] The degree of phosphorylation was detected by TR-FRET (time-resolved fluorescence energy transfer). […] The enzymatic reactions took place for 30 minutes at room temperature. […] Incubate for 3 h and read on Victor 2V spectrofluorometer (PerkinElmer) set to read fluorescence resonance energy transfer.

[2] = target: human JAK1 (aa 850-1154) (Homo sapiens, UniProt P23458); assay: In vitro JAK kinase assay (TR-FRET), JAK1
Procedure: as §1

[3] = target: human JAK2 (aa 826-1132) (Homo sapiens, UniProt O60674); assay: In vitro JAK kinase assay (TR-FRET), JAK2
Sequence of human JAK2 (aa 826-1132) (O60674 826-1132): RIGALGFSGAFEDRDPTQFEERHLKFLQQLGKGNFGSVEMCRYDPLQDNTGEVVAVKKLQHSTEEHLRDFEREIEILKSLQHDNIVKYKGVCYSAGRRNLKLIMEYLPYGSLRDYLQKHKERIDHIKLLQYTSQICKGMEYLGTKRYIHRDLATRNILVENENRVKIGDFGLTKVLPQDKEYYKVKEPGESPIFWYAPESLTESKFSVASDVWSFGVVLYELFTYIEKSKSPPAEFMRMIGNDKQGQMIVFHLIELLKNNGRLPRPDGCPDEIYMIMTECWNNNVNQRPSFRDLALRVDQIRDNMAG
Procedure: as §1

Sequence of human JAK3 (aa 795-1124) (P52333 795-1124): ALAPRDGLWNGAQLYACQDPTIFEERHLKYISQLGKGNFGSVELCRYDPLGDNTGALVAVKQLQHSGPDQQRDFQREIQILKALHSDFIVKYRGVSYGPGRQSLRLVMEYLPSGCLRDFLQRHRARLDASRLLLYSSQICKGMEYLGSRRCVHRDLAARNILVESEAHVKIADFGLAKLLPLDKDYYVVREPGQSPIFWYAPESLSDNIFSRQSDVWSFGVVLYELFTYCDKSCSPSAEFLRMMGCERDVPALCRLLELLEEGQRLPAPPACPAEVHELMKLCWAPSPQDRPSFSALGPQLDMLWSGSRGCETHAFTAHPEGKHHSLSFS
Sequence of human JAK1 (aa 850-1154) (P23458 850-1154): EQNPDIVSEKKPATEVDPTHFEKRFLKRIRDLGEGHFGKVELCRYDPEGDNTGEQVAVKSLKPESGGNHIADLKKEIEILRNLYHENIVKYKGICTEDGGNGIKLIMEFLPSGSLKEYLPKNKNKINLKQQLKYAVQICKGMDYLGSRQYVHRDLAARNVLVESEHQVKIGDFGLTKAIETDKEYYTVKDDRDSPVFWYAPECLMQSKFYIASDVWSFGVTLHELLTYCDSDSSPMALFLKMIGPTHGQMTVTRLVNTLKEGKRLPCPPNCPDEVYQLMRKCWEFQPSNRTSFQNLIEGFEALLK

SMILES | IC50 [1] | IC50 [2] | IC50 [3]
O=c1[nH]c2cc(F)c(-c3cnc4ccc(F)cn34)nc2n1C1CCOCC1 [Example 73, 6-Fluoro-5-(6-fluoroimidazo[1,2-a]pyridin-3-yl)-3-(tetrahydro-2H-pyran-4-yl)-1,3-dihydro-2H-imidazo[4,5-b]pyridin-2-one] | < 100 nM | 100 to 1000 nM | < 100 nM
C[C@@H]1CCCC[C@@H]1n1c(=O)[nH]c2cnc(-c3cnc4ccc(C#N)cn34)nc21 [Example 3, 3-(9-((1S,2R)-2-Methylcyclohexyl)-8-oxo-8,9-dihydro-7H-purin-2-yl)imidazo[1,2-a]pyridine-6-carbonitrile] |  | 100 to 1000 nM | 
O=c1[nH]c2cnc(-c3cnc4ccc(F)cn34)nc2n1[C@H](CO)c1ccc(F)cn1 [Example 35, (S)-2-(6-Fluoroimidazo[1,2-a]pyridin-3-yl)-9-(1-(5-fluoropyridin-2-yl)-2-hydroxyethyl)-7H-purin-8(9H)-one] | 100 to 1000 nM | 100 to 1000 nM | < 100 nM
CC1(C)CC(n2c(=O)[nH]c3cnc(-c4cnc5ccc(F)cn45)nc32)c2cccnc2O1 (stereo not shown) [Example 42, 9-(2,2-Dimethyl-3,4-dihydro-2H-pyrano[2,3-b]pyridin-4-yl)-2-(6-fluoroimidazo[1,2-a]pyridin-3-yl)-7H-purin-8(9H)-one] | 100 to 1000 nM | > 1000 nM | 100 to 1000 nM
O=c1[nH]c2cnc(-c3cnn4ccncc34)nc2n1CC1CCOCC1 [Example 80, 2-(Pyrazolo[1,5-a]pyrazin-3-yl)-9-((tetrahydro-2H-pyran-4-yl)methyl)-7H-purin-8(9H)-one] | 100 to 1000 nM | 100 to 1000 nM | 100 to 1000 nM
O=c1[nH]c2cnc(-c3cnn4cc(F)ccc34)nc2n1C1CCOCC1 [Example 89, 2-(6-Fluoropyrazolo[1,5-a]pyridin-3-yl)-9-(tetrahydro-2H-pyran-4-yl)-7H-purin-8(9H)-one] | < 100 nM | > 1000 nM | < 100 nM
O=c1[nH]c2c(N3CCNCC3)nc(-c3cnc4ccc(F)cn34)nc2n1C1CCOCC1 [Example 98, 2-(6-Fluoroimidazo[1,2-a]pyridin-3-yl)-6-(piperazin-1-yl)-9-(tetrahydro-2H-pyran-4-yl)-7H-purin-8(9H)-one] | < 100 nM | > 1000 nM | < 100 nM
CS(=O)(=O)N1CCC[C@@H](n2c(=O)[nH]c3cnc(-c4cnc5ccc(F)cn45)nc32)C1 [Example 62, 2-(6-Fluoroimidazo[1,2-a]pyridin-3-yl)-9-[(3R)-1-(methylsulfonyl)piperidin-3-yl]-7,9-dihydro-8H-purin-8-one] | 100 to 1000 nM | > 1000 nM | < 100 nM
CS(=O)(=O)N1CCC(n2c(=O)[nH]c3ccc(-c4cnc5ccc(F)cn45)nc32)CC1 [Example 71, 5-(6-Fluoroimidazo[1,2-a]pyridin-3-yl)-3-[1-(methylsulfonyl)piperidin-4-yl]-1,3-dihydro-2H-imidazo[4,5-b]pyridin-2-one] | < 100 nM | > 1000 nM | < 100 nM
C[C@H](c1ccc(F)cn1)n1c(=O)[nH]c2cnc(-c3cnn4ccncc34)nc21 [Example 79, (R)-9-(1-(5-Fluoropyridin-2-yl)ethyl)-2-(pyrazolo[1,5-a]pyrazin-3-yl)-7H-purin-8(9H)-one] | < 100 nM | < 100 nM | < 100 nM
O=c1[nH]c2cnc(-c3cnn4ccncc34)nc2n1C1CCC(F)(F)CC1 [Example 81, 9-(4,4-Difluorocyclohexyl)-2-(pyrazolo[1,5-a]pyrazin-3-yl)-7H-purin-8(9H)-one] | < 100 nM | < 100 nM | < 100 nM
O=c1[nH]c2cnc(-c3cnn4cccnc34)cc2n1C1CCOCC1 [Example 92, 6-(Pyrazolo[1,5-a]pyrimidin-3-yl)-1-(tetrahydro-2H-pyran-4-yl)-1H-imidazo[4,5-c]pyridin-2(3H)-one] | 100 to 1000 nM | 100 to 1000 nM | < 100 nM
N#CC1(n2c(=O)[nH]c3cnc(-c4cnc5ccc(F)cn45)nc32)CCCCC1 [Example 36, 1-(2-(6-Fluoroimidazo[1,2-a]pyridin-3-yl)-8-oxo-7H-purin-9(8H)-yl)cyclohexane carbonitrile] | 100 to 1000 nM | > 1000 nM | < 100 nM
C[C@H](CC(N)=O)n1c(=O)[nH]c2cnc(-c3cnc4ccc(F)cn34)nc21 [Example 58, (R)-3-(2-(6-Fluoroimidazo[1,2-a]pyridin-3-yl)-8-oxo-7H-purin-9(8H)-yl)butanamide] | 100 to 1000 nM | > 1000 nM | 100 to 1000 nM
